According to patent US20230055237A1, “COMPOUNDS AND METHODS FOR THE TREATMENT OF CYSTIC FIBROSIS” (Flatley Discovery Lab, LLC, priority 2019, published 2023):

Biological target: T1, CFTR (Homo sapiens, UniProt P13569, DEL508-508)
T1 construct: Primary CF airway epithelial cells were obtained from the UNC Cystic Fibrosis Tissue Procurement and Cell Culture Core; host or cells: primary CF airway epithelial cells, differentiated at the air-liquid interface
Experiment: Equivalent current assay in primary CF airway epithelial cells (NAUC, combination with 1st site corrector FDL169 or VX-809)
Assay type: cell-based
Details: 37° C., 24 h

[1] = test compound 1 μM in combination with 1st site corrector VX-809 (3 μM)
[2] = test compound 3 μM in combination with 1st site corrector VX-809 (3 μM)
[3] = test compound 10 μM in combination with 1st site corrector VX-809 (3 μM)
[4] = test compound 1 μM in combination with 1st site corrector FDL169 (3 μM)
[5] = test compound 3 μM in combination with 1st site corrector FDL169 (3 μM)
[6] = test compound 10 μM in combination with 1st site corrector FDL169 (3 μM)

T1 sequence (P13569 with tags, fused parts or gaps DEL508-508): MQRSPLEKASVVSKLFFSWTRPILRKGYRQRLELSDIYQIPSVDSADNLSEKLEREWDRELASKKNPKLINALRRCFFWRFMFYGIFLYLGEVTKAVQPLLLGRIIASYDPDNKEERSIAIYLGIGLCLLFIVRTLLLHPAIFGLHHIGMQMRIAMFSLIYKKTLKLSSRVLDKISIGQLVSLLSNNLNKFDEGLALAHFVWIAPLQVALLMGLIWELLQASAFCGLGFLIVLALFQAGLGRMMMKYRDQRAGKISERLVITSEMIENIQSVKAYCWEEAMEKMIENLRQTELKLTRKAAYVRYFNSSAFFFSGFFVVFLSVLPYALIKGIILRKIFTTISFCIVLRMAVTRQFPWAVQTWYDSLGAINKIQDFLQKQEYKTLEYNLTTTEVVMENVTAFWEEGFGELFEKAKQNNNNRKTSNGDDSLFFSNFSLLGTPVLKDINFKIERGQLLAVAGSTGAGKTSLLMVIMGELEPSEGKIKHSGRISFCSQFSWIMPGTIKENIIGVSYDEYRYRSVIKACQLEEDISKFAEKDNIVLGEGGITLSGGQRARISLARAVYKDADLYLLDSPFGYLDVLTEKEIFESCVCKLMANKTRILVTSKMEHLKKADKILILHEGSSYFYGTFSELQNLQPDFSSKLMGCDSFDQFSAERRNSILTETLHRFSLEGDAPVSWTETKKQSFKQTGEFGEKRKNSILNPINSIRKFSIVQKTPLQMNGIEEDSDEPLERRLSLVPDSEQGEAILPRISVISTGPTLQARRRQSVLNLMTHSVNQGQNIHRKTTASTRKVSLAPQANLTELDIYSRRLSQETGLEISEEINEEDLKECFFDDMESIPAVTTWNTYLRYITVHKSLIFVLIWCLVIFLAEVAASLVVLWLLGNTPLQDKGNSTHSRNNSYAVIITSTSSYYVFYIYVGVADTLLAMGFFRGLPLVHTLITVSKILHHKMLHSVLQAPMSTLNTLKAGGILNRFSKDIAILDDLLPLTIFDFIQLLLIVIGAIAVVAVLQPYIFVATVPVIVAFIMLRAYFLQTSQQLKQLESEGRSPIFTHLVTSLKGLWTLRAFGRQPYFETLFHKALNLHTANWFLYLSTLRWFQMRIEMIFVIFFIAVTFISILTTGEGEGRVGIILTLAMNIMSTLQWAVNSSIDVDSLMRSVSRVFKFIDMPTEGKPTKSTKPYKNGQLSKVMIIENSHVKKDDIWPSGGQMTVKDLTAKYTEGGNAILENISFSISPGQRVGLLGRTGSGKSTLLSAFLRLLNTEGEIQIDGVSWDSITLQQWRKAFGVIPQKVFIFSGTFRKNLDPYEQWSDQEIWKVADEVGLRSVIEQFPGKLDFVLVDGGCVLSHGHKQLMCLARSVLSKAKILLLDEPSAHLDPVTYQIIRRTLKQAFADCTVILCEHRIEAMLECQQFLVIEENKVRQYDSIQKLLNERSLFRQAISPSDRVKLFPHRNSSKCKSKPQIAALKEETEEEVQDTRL

SMILES | Nauc @ 1 μM [1] | Nauc @ 3 μM [2] | Nauc @ 10 μM [3] | Nauc @ 1 μM [4] | Nauc @ 3 μM [5] | Nauc @ 10 μM [6]
O=C(Nc1cc(Cl)cc(Cl)c1)C1C2CCCN2C2(C(=O)Nc3c(Cl)cc(Cl)cc32)C1C(=O)NO (single isomer, unassigned) [Example 234b, 5,7-dichloro-N1′-(3,5-dichlorophenyl)-N2′-hydroxy-2-oxo-1′,2′,5′,6′,7′,7a′-hexahydrospiro[indoline-3,3′-pyrrolizine]-1,2′-dicarboxamide] | + (NAUC “+” refers to an observed NAUC <140% of positive control) | ++ (NAUC “++” refers to an observed NAUC 170-140% of positive control) | +++ (NAUC “+++” refers to an observed NAUC>170% of positive control) |  |  | 
O=C(Nc1nccc2cccnc12)[C@H]1[C@H]2CC(F)(F)CN2[C@]2(C(=O)Nc3c(Cl)cc(Cl)cc32)[C@H]1C(=O)O [Example 135] | + (NAUC “+” refers to an observed NAUC <140% of positive control) | + (NAUC “+” refers to an observed NAUC <140% of positive control) | + (NAUC “+” refers to an observed NAUC <140% of positive control) |  |  | 
CCN(C(=O)[C@H]1[C@H]2CC(F)(F)CN2[C@]2(C(=O)Nc3c(Cl)cc(Cl)cc32)[C@H]1C(=O)O)c1cc(Cl)cc(Cl)c1 [Example 171] |  |  |  | +++ (NAUC “+++” refers to an observed NAUC>170% of positive control) | +++ (NAUC “+++” refers to an observed NAUC>170% of positive control) | +++ (NAUC “+++” refers to an observed NAUC>170% of positive control)
O=C(O)[C@H]1[C@@H](C(=O)N(CC2CCCC2)c2cccc(C(F)(F)F)c2)[C@H]2CC(F)(F)CN2[C@]12C(=O)Nc1c(Cl)cc(Cl)cc12 [Example 181] |  |  |  | ++ (NAUC “++” refers to an observed NAUC 170-140% of positive control) | +++ (NAUC “+++” refers to an observed NAUC>170% of positive control) | 
O=C(Nc1cc(C(F)(F)F)cc(C(F)(F)F)n1)C1C2CC3(CC3)CN2C2(C(=O)Nc3c(Cl)cc(Cl)cc32)C1C(=O)O (stereo not shown) [Example 1] |  | +++ (NAUC “+++” refers to an observed NAUC>170% of positive control) | +++ (NAUC “+++” refers to an observed NAUC>170% of positive control) |  |  | 
O=C(O)[C@H]1[C@@H](C(=O)N(CC2CCCC2)c2cc(Cl)cc(Cl)c2)[C@H]2CC(F)(F)CN2[C@]12C(=O)Nc1c(Cl)cc(Cl)cc12 [Example 145] |  |  |  | +++ (NAUC “+++” refers to an observed NAUC>170% of positive control) | +++ (NAUC “+++” refers to an observed NAUC>170% of positive control) | +++ (NAUC “+++” refers to an observed NAUC>170% of positive control)
CN(O)C(=O)C1C(C(=O)Nc2cc(Cl)cc(Cl)c2)C2CC(F)(F)CN2C12C(=O)Nc1c(Cl)cc(Cl)cc12 (single isomer, unassigned) [Example 225a, 5,7-dichloro-N1′-(3,5-dichlorophenyl)-6′,6′-difluoro-N2′-hydroxy-N2′-methyl-2-oxo-1′,2′,5′,6′,7′,7a′-hexahydrospiro[indoline-3,3′-pyrrolizine]-1′,2′-dicarboxamide] | + (NAUC “+” refers to an observed NAUC <140% of positive control) | + (NAUC “+” refers to an observed NAUC <140% of positive control) | +++ (NAUC “+++” refers to an observed NAUC>170% of positive control) |  |  | 
O=C(Nc1cc(Cl)cc(Cl)c1)C1C2CCCN2C2(C(=O)Nc3c(Cl)cc(Cl)cc32)C1C(=O)NO (single isomer, unassigned) [Example 234a, 5,7-dichloro-N1′-(3,5-dichlorophenyl)-N2′-hydroxy-2-oxo-1′,2′,5′,6′,7′,7a′-hexahydrospiro[indoline-3,3′-pyrrolizine]-1,2′-dicarboxamide] | ++ (NAUC “++” refers to an observed NAUC 170-140% of positive control) | ++ (NAUC “++” refers to an observed NAUC 170-140% of positive control) | ++ (NAUC “++” refers to an observed NAUC 170-140% of positive control) |  |  | 
O=C(Nc1cc(Cl)c(OC(F)F)c(Cl)c1)C1C2CCCN2C2(C(=O)Nc3c(Cl)cc(Cl)cc32)C1C(=O)O (stereo not shown) [Example 19] |  | ++ (NAUC “++” refers to an observed NAUC 170-140% of positive control) | +++ (NAUC “+++” refers to an observed NAUC>170% of positive control) |  |  | 
O=C(Nc1cccc2nccnc12)[C@H]1[C@H]2CC(F)(F)CN2[C@]2(C(=O)Nc3c(Cl)cc(Cl)cc32)[C@H]1C(=O)O [Example 126] | ++ (NAUC “++” refers to an observed NAUC 170-140% of positive control) | ++ (NAUC “++” refers to an observed NAUC 170-140% of positive control) |  |  |  | 
O=C(Nc1cncc(C(F)(F)F)n1)C1C2CC3(CC3)CN2C2(C(=O)Nc3c(Cl)cc(Cl)cc32)C1C(=O)O (stereo not shown) [Example 21] |  | +++ (NAUC “+++” refers to an observed NAUC>170% of positive control) | +++ (NAUC “+++” refers to an observed NAUC>170% of positive control) |  |  | 
CC(C)(C)c1cccc(C(C)(C)CNC(=O)C2C3CC(F)(F)CN3C3(C(=O)Nc4c(Cl)cc(Cl)cc43)C2C(=O)O)c1 (stereo not shown) [Example 64] |  |  | +++ (NAUC “+++” refers to an observed NAUC>170% of positive control) |  |  | 
O=C(Nc1cc(Cl)cc(Cl)c1)C1C(C(F)(F)c2ccc(C(F)(F)F)cc2)NC2(C(=O)Nc3c(Cl)cc(Cl)cc32)C1C(=O)O (stereo not shown) [Example 73.c] | + (NAUC “+” refers to an observed NAUC <140% of positive control) | + (NAUC “+” refers to an observed NAUC <140% of positive control) | +++ (NAUC “+++” refers to an observed NAUC>170% of positive control) |  |  | 
CC(C)(C)c1cccc(CCNC(=O)C2C(C(F)(F)F)NC3(C(=O)Nc4c(Cl)cc(Cl)cc43)C2C(=O)O)c1 (stereo not shown) [Example 45] |  | +++ (NAUC “+++” refers to an observed NAUC>170% of positive control) | +++ (NAUC “+++” refers to an observed NAUC>170% of positive control) |  |  | 
O=C(Nc1cc(Cl)cc(Cl)c1)[C@H]1[C@H]2CCCN2[C@]2(C(=O)Nc3c(Cl)cc(Cl)cc32)[C@H]1C(=O)NN1CCOCC1 (relative stereo) [Example 243, (1′R,2′S,7a′R)-5,7-dichloro-N1′-(3,5-dichlorophenyl)-N2′-morpholino-2-oxo-1′,2′,5′,6′,7′,7a′-hexahydrospiro dicarboxamide] | + (NAUC “+” refers to an observed NAUC <140% of positive control) | + (NAUC “+” refers to an observed NAUC <140% of positive control) |  |  |  | 
CN(C)C(=O)CN(C(=O)[C@H]1[C@H]2CC(F)(F)CN2[C@]2(C(=O)Nc3c(Cl)cc(Cl)cc32)[C@H]1C(=O)O)c1cc(Cl)cc(Cl)c1 [Example 153] |  |  |  | + (NAUC “+” refers to an observed NAUC <140% of positive control) | + (NAUC “+” refers to an observed NAUC <140% of positive control) | 
NNC(=O)[C@H]1[C@@H](C(=O)Nc2cc(Cl)cc(Cl)c2)[C@H]2CCCN2C12C(=O)Nc1c(Cl)cc(Cl)cc12 (stereo partly drawn) [Example 236, (1′R,2′S,7a′R)-5,7-dichloro-N-(3,5-dichlorophenyl)-2′-(hydrazinecarbonyl)-2-oxo-1′,2′,5′,6′,7′,7a′-hexahydrospiro[indoline-3,3′-pyrrolizine]-1′-carboxamide] | + (NAUC “+” refers to an observed NAUC <140% of positive control) | ++ (NAUC “++” refers to an observed NAUC 170-140% of positive control) | +++ (NAUC “+++” refers to an observed NAUC>170% of positive control) |  |  | 
O=C(Nc1cc(Cl)cc(Cl)c1)C1C(C(F)(F)c2cccc(Cl)c2)NC2(C(=O)Nc3c(Cl)cc(Cl)cc32)C1C(=O)O (stereo not shown) [Example 68.a] |  |  | + (NAUC “+” refers to an observed NAUC <140% of positive control) |  |  | 
CN(C(=O)[C@H]1[C@H]2CCCN2[C@]2(C(=O)Nc3c(Cl)cc(Cl)cc32)[C@H]1C(=O)O)c1cc(Cl)cc(Cl)c1 [Example 266] | + (NAUC “+” refers to an observed NAUC <140% of positive control) | +++ (NAUC “+++” refers to an observed NAUC>170% of positive control) | +++ (NAUC “+++” refers to an observed NAUC>170% of positive control) |  |  | 
O=C(Nc1cc(Cl)cc(Cl)c1)C1CN(C(=O)CCc2ccccc2)C2(C(=O)Nc3c(Cl)cc(Cl)cc32)C1C(=O)O (stereo not shown) [Example 24] |  | +++ (NAUC “+++” refers to an observed NAUC>170% of positive control) | + (NAUC “+” refers to an observed NAUC <140% of positive control) |  |  | 
CC(C)(C)CN(C(=O)[C@H]1[C@H]2C[C@](C)(OCc3ccccc3)CN2[C@]2(C(=O)Nc3c(Cl)cc(Cl)cc32)[C@H]1C(=O)O)c1cc(Cl)cc(Cl)c1 [Example 90, (1′R,2′S,3R,6′S,7a′R)-6′-(benzyloxy)-5,7-dichloro-1-((3,5-dichlorophenyl)(neopentyl)carbamoyl)-6′-methyl-2-oxo-1′,2′,5′,6′,7′,7a′-hexahydrospiro[indoline-3,3′-pyrrolizine]-2′-carboxylic acid] |  |  |  | + (NAUC “+” refers to an observed NAUC <140% of positive control) | + (NAUC “+” refers to an observed NAUC <140% of positive control) | 
O=C(Nc1cc(Cl)cc(Cl)c1)C1C(C(F)(F)F)NC2(C(=O)Nc3c(Cl)cc(Cl)cc32)C1C(=O)O (stereo not shown) [Example 35] |  | +++ (NAUC “+++” refers to an observed NAUC>170% of positive control) | +++ (NAUC “+++” refers to an observed NAUC>170% of positive control) |  |  | 
Cc1cccc(C(F)(F)C2NC3(C(=O)Nc4c(Cl)cc(Cl)cc43)C(C(=O)O)C2C(=O)Nc2cc(Cl)cc(Cl)c2)c1 (stereo not shown) [Example 62] |  |  | +++ (NAUC “+++” refers to an observed NAUC>170% of positive control) |  |  | 
